Laboratory results taken from ChEMBL document CHEMBL1151656, “Cucurbitacin B and isocucurbitacin B: cytotoxic components of Helicteres isora” (1985).

Assay: Cytotoxicity against human 9KB cells
Type: functional

Structure (SMILES) | ED50 [×10⁻⁵ ug/ml]
CC(=O)OC(C)(C)/C=C/C(=O)[C@](C)(O)[C@H]1[C@H](O)C[C@@]2(C)[C@@H]3CC=C4[C@H](C[C@H](O)C(=O)C4(C)C)[C@]3(C)C(=O)C[C@]12C [CUCURBITACIN B] | <1
CC(=O)OC(C)(C)/C=C/C(=O)[C@@](C)(O)[C@H]1[C@H](O)C[C@@]2(C)[C@@H]3CC=C4[C@@H](CC(=O)[C@@H](O)C4(C)C)[C@]3(C)C(=O)C[C@]12C [ISOCUCURBITACIN B] | 7.6
